Drawing on patent publication US10239849B2 (Merck Sharp & Dohme Corp., priority 2015, dated 2019), this text covers Emax and EC50 for six compounds.

Assay [1] concerns the target T1, glutathione-S-transferase (GST) tagged LXRbeta LBD (ligand binding domain) (Homo sapiens, UniProt P55055).
T1 construct: purchased Invitrogen pv4658.pps
T1 sequence (P55055 222-460 limits assumed): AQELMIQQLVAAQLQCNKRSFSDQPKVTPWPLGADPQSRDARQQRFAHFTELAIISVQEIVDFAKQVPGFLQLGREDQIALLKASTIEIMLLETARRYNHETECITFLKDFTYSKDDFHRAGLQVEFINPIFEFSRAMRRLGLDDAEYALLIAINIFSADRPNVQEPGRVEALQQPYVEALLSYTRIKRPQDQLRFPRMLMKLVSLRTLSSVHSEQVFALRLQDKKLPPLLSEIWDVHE
Briefly: LanthaScreen TR-FRET Liver X Receptor Coactivator Assay, LXR beta-LBD. Format: biochemical. To be noted: for Emax: efficacy in relation to reference dual agonist T1317, read-out: LXR beta activity at max dose (%) (Emax); for pEC50: potency (Inflection Point) of co-activator recruitment, TR-FRET, read-out: LXR beta IP. In short, it runs like this:
(§1)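 TR-FRET coactivator recruitment read-out: compounds first received either LBD, followed by a mix of terbium-labelled anti-GST antibody and fluorescein coactivator peptide. Signal measured by time-resolved FRET once plates had incubated at room temperature.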
In general terms: Time-resolved FRET reads energy transfer from a long-lived donor to a nearby acceptor.

Assay [2] has as its target T2, glutathione-S-transferase (GST) tagged LXRalpha LBD (ligand binding domain) (Homo sapiens, UniProt Q13133).
T2 construct: purchased Invitrogen pv4655
T2 sequence (Q13133 209-447 limits assumed): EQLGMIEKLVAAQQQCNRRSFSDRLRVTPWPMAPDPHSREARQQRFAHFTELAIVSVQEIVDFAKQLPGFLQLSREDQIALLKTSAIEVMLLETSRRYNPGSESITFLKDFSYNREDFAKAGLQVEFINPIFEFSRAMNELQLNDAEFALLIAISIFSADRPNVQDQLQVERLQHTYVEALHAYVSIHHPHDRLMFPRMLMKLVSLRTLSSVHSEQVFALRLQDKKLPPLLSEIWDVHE
Put plainly: LanthaScreen TR-FRET Liver X Receptor Coactivator Assay, LXR alpha-LBD. To be noted: for Emax: efficacy in relation to reference dual agonist T1317, read-out: LXR alpha activity at max dose (%) (Emax); for pEC50: potency (Inflection Point) of co-activator recruitment, TR-FRET, read-out: LXR alpha IP. Type of assay: biochemical. In outline:
as §1

pEC50: −log10 of the molar value.

For `CC1CN(c2ncc(-c3ccc(C(=O)N(C)C)c(Cl)c3)cc2C#N)CCN1C(=O)OC(C)(C)C` (stereo not drawn) [Example 8-6, tert-butyl 4-{5-[3-chloro-4-(dimethylcarbamoyl)phenyl]-3-cyanopyridin-2-yl}-2-methylpiperazine-1-carboxylate], in assay [1], the Emax (as a rule, the maximal effect, on the per cent scale that the assay sets) amounted to 78% and the pEC50 was 7.24. Besides, in assay [2], the maximal effect (Emax) is 68% and the pEC50 was 4.89.

`CC(C)(C)OC(=O)N1CCN(c2ncc(-c3ccc(C(=O)N4CC[C@H](O)C4)c(Cl)c3)cc2C#N)CC1` [Example 5-13, tert-butyl 4-[5-(3-chloro-4-{[(3S)-3-hydroxypyrrolidin-1-yl]carbonyl}phenyl)-3-cyanopyridin-2-yl]piperazine-1-carboxylate]: in assay [1], the Emax amounted to 62% and the pEC50 was 6.58. In addition, in assay [2], the maximal effect (Emax) is 44% and the pEC50 is 5.16.

Regarding `CC(C)C(=O)C(=O)N1CCN(c2ncc(-c3cc(Cl)c(C(=O)N(C)C)c(Cl)c3)cc2C#N)CC1` [Example 7-2, 2,6-dichloro-4-{5-cyano-6-[4-(3-methyl-2-oxobutanoyl)piperazin-1-yl]pyridin-3-yl}1-N,N-dimethylbenzamide], the Emax in assay [1] stood at 88%; in assay [2], 30%. The pEC50 in assay [1] was 7.49; in assay [2], 5.69.

Take `CN(CCn1cncn1)C(=O)c1ccc(-c2cnc(N3CCN(C(=O)C(C)(C)c4ccccc4)CC3)c(C#N)c2)cc1Cl` [Example 6-3, 2-chloro-4-{5-cyano-6-[4-(2-methyl-2-phenylpropanoyl)piperazin-1-yl]pyridin-3-yl}-N-methyl-N-[2-(1H-1,2,4-triazol-1-yl)ethyl]benzamide]: in assay [1], the Emax was 113% and the pEC50 is 7.52. In assay [2], the Emax was found to be 33% and the pEC50 was 5.62.

As for `CN(C)C(=O)c1ccc(-c2cnc(N3CCN(C(=O)Cc4cn5ccsc5n4)CC3)c(C#N)c2)cc1Cl` [Example 2-24, 2-chloro-4-{5-cyano-6-[4-(imidazo[2,1-b][1,3]thiazol-6-ylacetyl)piperazin-1-yl]pyridin-3-yl}-N,N-dimethylbenzamide], in assay [1], the Emax was found to be 104% and the pEC50 was 6.33. Also, in assay [2], the Emax is 42% and the pEC50 is 4.53.

Regarding `CCC(O)(C(=O)N1CCN(c2ncc(-c3ccc(C(=O)N(C)C)c(Cl)c3)cc2C#N)CC1)C(F)(F)F` (stereo not drawn) [Example 2-20, 2-chloro-4-(5-cyano-6-{4-[2-hydroxy-2-(trifluoromethyl)butanoyl]piperazin-1-yl}pyridin-3-yl)-N,N-dimethylbenzamide], the figures for the Emax in assay [1] and in assay [2] were 102% and 60%, respectively. The pEC50 is 6.86 in assay [1] and 5.22 in assay [2].
